Results: patent US20040235717A1, “Suppression of androgen receptor transactivation through new pathways to ar and ar coactivators and repressors” (priority 2001, published 2004)
Where two headings read alike, the source gives them in different places.

Assays:
[1] = system: wtAR, mtARt877a, PR, VDR, ER transactivation; settings: previous reports; cited from earlier work
[2] = system: wtAR, mtARt877a, PR, VDR, ER transactivation; assay: Steroid receptor transactivation with Smad3 in DU145 cells (wtAR, mtARt877a, PR, VDR, ER); format: cell-based, human
AR transactivation [3] = settings: previous reports; cited from earlier work
AR transactivation [4] = assay: AR transactivation with TSA, MMTV-LUC in PC3-AR2 cells; format: cell-based
U87MG cells = assay: PTEN-induced apoptosis in AR-negative U87MG cells, TUNEL assay; format: cell-based
Method: (§1) 31. […] (D) The LNCaP cells were transfected with plasmids as indicated for 16 h, and the medium was changed to 0.1% CDS media for 2 days. The cell apoptosis was determined by TUNEL assay (E) The LNCaP cells were transfected with plasmids as indicated for 16 h, harvested, and the cell extracts were subjected to SDS-PAGE. The Akt activity was determined by Western blotting using phospho(S473)-Akt antibody. (F) The U87MG cells were transfected with plasmids as indicated for 16 h, and the medium was changed 0.1% CDS media for 2 days. The cell apoptosis was determined by TUNEL assay. Data for luciferase activity and apoptosis are means±s.d. from three independent experiments.
311. For the apoptosis assay, the cells were transfected with plasmids for 24 h and grown in 0.1% charcol-stripped serum (CDS) media. The apoptosis was determined 2 days after transfection using the TUNEL assay according to the standard procedures (Oncogene). At least 200 cells were scored for each sample and data are means±s.d. from three independent experiments.

PSA mRNA expression = PSA mRNA expression in LNCaP cells, Northern blot; format: cell-based; settings: presence of androgen
AR protein stability = assay: Pulse-chase labeling of AR in COS-1 cells; format: cell-based; settings: 10 nM DHT
Method: 30. […] The cells were harvested for Western blot analysis. […] Western blot analysis was performed and AR and PTEN were detected by AR antibody or PTEN antibody. (C) PTEN-C1 cells were treated with 4 μg/ml Dox in 10% CDS media for 48 h. Total RNA was prepared and Northern blot analysis was performed using [^32P]-dCTP-labeled AR (aa, 1-389) as a probe. (D) COS-1 cells were transfected with AR along with pCDNA3 or PTEN in 10% CDS media for 16 h. […] The cell extracts were immunoprecipitated with AR antibody and subjected to SDS-PAGE followed by autoradiography. Data were from three identical results. (E) COS-1 cells were transfected with AR along with pCDNA3 or dAkt in 10% CDS media for 16 h, pulsed with [^35S]-methionine for 45 min, and then harvested at different chase times as indicated. LY294002 (20 μM) was added 2 h before pulsing with [^35S]-methionine.
317. Pulse-chase experiments were performed as described (Lo et al. (1999) Nat Cell Biol 1, 472-8) with some modifications. Briefly, COS-1 cells were transfected with pSG5-AR in combination with pCDNA3 or pCDNA3 PTEN in 10% CDS media for […]. Cells were grown under serum starvation conditions for 2 h in methionine/cysteine-deficient medium, and then the cells were pulsed for 45 min with 200 μCi/ml [^35S]-methionine/cysteine (NEN). […]

AR, ER, GR, PR, RXR = assay: GST pull-down assay of PTEN with nuclear receptors; format: binding; settings: presence or absence of ligand
Method: 27. […] (A) GST or GST-PTEN incubation with the [^35S]-labeled AR, ER, or RXR for 2 h in the presence or absence of the ligand. The bound proteins were analyzed by SDS-PAGE, followed by autoradiography. (B) Representation of PTEN deleted mutants. PTP domain, protein tyrosine phosphates domain; Ty-p, tyrosine phosphorylation domain. (C) [^35S]-labeled AR was incubated with different PTEN deleted mutants. The nearly equivalent aliquots of PTEN deleted mutants used are shown in the right panel. (D) Representation of AR deleted mutants. (E) GST or GST-PTEN was incubated with different AR deleted mutants. (F) The His-AR-N-DBD was incubated with [^35S]-PTEN or [^35S]-PTEN C124S for 2 h. The bound protein was analyzed by the SDS-PAGE, followed by autoradiography.
313. GST fusion proteins were purified as described by the manufacturer (Amersham Pharmacia). The purified GST-proteins were resuspended with 100 μl of interaction buffer (20 mM Tris-HCl/pH 8.0, 60 mM NaCl, 1 mM EDTA, 6 mM MgCl2, 1 mM Dithiothreitol, 8% Glycerol, 0.05% (v/v) NP-40, 1 mM PMSF, and proteinase inhibitors) and mixed with 5 μl of [^35S]-labeled TNT proteins in the presence or absence of 1 μM ligands on a rotating disk at 4° C. for 2 h. After extensive washes with NENT buffer, the bound proteins were separated on an 8% SDS-polyacrylamide gel and visualized by autoradiography.

AR transactivation [5] = assay: AR transactivation, (ARE)4-luc in CWR22 cells; format: cell-based, human
Method: as §1
312. […] The cells were lysed and the luciferase activity was detected by the dual luciferase assay according to standard procedures.

AR transactivation [6] = assay: AR transactivation, MMTV-luc / (ARE)4-luc luciferase reporter assay; format: cell-based; settings: 10 nM DHT; for Repression of AR transactivation: MMTV-luc
AR protein levels = assay: AR protein (Western blot) and AR mRNA (Northern blot) levels; format: cell-based
LNCaP cells = assay: PTEN-induced apoptosis in LNCaP cells, TUNEL assay; format: cell-based; settings: 0.1% CDS media 2 days
AR transactivation [7] = assay: AR transactivation with Smad3/Smad4, CAT reporters in PC3-AR2, PC-3 and LNCaP cells; format: cell-based, human; settings: PC3-AR2
Method: 32. […] LNCaP cell were transfected with Smad3 or Smad4 expression vector instead of PC-3(AR)2 cells in experiments otherwise identical with those in A (B), PC-3(AR)2 cells stably transfected with AR were over-expressed with the indicated amounts of Smad3 or Smad4 or SRC-1. 3 μg of MMTV-CAT was used as a reporter plasmid in all experiments. All values represent the averages±SD of four independent experiments. […] PSA expression level was determined by Northern blotting. The probe was obtained from exon 1 of the PSA gene and labeled with [α-^32P] dCTP. A β-actin probe was used as a control for equivalent mRNA loading. (C, Table 1) The RNA samples from (A) were reverse transcribed to cDNAs and all of the samples were subjected to real-time CR using an ABI Prism 7700 Sequence Detection System (Perkin-Elmer Applied bio systems). PCR was performed using the SYBR Green PCR Core Reagents kit (Perkin-Elmer Applied Bio systems). PSA and β-actin forward, reverse primers concentrations were 2.5 μM. To reduce variability between replicates, PCR premixes which contained all reagents except for total RNA were prepared and aliquoted into 1.5 ml microfuge tubes. Specific PCR amplification products were detected by the fluorescent double-stranded DNA-binding dye SYBR Green core reagent kit. […]
333. […] The CAT activity was visualized and quantitated by STORM 840 (Molecular Dynamics). […]

[8] = biological target: T1, interaction between Smad3 and AR (Homo sapiens, UniProt P10275); assay: Mammalian two-hybrid assay Gal4-Smad3 / VP16-AR; format: cell-based; settings: DU145
T1 construct: expressed in transfected cells; host or cells: DU145
T1 sequence (P10275 whole entry, the tested form may be a part): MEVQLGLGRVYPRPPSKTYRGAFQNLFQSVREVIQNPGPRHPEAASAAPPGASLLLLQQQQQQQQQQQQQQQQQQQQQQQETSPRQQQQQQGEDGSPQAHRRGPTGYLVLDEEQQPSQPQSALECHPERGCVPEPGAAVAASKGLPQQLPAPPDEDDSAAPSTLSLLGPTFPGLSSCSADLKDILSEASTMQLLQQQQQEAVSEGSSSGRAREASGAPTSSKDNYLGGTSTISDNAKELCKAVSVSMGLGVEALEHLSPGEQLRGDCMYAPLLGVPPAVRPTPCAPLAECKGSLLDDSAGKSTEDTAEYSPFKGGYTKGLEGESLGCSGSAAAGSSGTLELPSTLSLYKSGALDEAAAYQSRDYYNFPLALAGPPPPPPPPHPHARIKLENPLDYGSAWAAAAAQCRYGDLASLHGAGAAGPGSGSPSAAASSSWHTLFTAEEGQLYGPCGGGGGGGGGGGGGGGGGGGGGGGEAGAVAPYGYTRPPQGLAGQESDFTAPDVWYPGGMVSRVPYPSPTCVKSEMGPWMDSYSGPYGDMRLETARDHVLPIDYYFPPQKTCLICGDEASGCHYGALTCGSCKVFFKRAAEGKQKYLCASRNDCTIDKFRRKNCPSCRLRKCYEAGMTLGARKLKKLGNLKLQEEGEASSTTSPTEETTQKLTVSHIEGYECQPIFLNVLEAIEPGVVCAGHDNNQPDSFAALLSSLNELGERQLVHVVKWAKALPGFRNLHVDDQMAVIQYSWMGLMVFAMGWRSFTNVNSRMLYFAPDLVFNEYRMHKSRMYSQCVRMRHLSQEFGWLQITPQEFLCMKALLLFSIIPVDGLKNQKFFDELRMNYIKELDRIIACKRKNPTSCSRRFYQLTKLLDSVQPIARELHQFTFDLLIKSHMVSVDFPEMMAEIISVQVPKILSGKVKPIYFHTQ
T1 sequence (P84022 whole entry partner, the tested form may be a part): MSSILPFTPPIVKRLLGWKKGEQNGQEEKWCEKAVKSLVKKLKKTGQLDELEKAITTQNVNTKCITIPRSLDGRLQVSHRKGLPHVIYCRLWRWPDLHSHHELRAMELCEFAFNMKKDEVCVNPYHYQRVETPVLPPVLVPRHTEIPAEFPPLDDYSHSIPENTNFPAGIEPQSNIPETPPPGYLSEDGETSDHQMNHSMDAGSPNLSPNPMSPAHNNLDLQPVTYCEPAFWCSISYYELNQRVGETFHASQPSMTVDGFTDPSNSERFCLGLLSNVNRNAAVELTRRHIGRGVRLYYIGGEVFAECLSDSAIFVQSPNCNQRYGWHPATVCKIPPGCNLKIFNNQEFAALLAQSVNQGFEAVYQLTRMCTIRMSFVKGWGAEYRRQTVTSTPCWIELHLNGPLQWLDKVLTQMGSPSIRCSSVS

[9] = system: AR-mediated transactivation; assay: AR-mediated transactivation with TGF-β, MMTV-CAT in DU145 and PC-3 cells; format: cell-based, human
Method: 19. […] (B). […] In the right panel, a fixed amount of TGF-β1 (10 ng/ml) was added into transfected PC-3 cells with increasing amounts of specific TGF-β1 neutralizing antibody. (C), PC-3(AR)2 cells stably transfected with AR were overexpressed with TGF-β type I (TβRI) or type II (TβRII)receptor or constitutively active TGF-β type I receptor (TβRI-T204D) as indicated. 3 μg of MMTV-CAT or MMTV-Luc was used as a reporter plasmid in all experiments. All values represent the averages+SD of four independent experiments.
284. To study the potential correlation between androgen and TGF-β in prostate cancer cells, the TGF-β responsive prostate cancer DU145 and PC-3 cells were chosen to examine the effect of TGF-β on androgen-induced mouse […] tumor virus (MMTV) promoter activity. […] Similar results were obtained with PC-3 cells, where AR-mediated transactivation was enhanced by TGF-β (FIG. 13B, lane 2 Vs 3-5) and suppressed by the TGF-β specific neutralizing antibody (FIG. 13B, lane 6 vs. 7-10), both in a dose-dependent manner (FIG. 13B).
294. […] The CAT activity was visualized and quantitated by STORM 840 (Molecular Dynamics). […]

For `C[C@]12CC[C@@H]3c4ccc(O)cc4CC[C@H]3[C@@H]1CC[C@@H]2O` [E2, 17-β estradiol], the “Stimulation of LNCaP mtARt877a” value [1] is listed as “stimulated”, the “mtARt877a transactivation response to ligand” value [2] is listed as “responded much better” and the “wtAR transactivation response to ligand” value ([2]; DHT 10 nM, HF 1 μM, E2 10 nM) is listed as “respond marginally”.

In the case of `CC(/C=C/C(=O)NO)=C\[C@@H](C)C(=O)c1ccc(N(C)C)cc1` [TSA, trichostatin A], the “Effect on androgen-mediated AR transactivation” value (AR transactivation [3]) is listed as “induce the androgen-mediated AR transactivation”, the “Effect on Smad3/Smad4-suppressed AR transactivation” value (AR transactivation [4]) is listed as “reverse the Smad3/Smad4-suppressed AR transactivation in a dose-dependent manner” and the “Effect on AR transactivation” value (AR transactivation [4]; DHT, increasing doses) is listed as “enhance AR transactivation in a dose-dependent manner”. For the same molecule, the “Effect on Smad3/Smad4-suppressed AR transactivation” value (AR transactivation [4]; listed as trichostatin A) was “reverse Smad3/Smad4-repressed AR transactivation”.

For `CC(=O)[C@H]1CC[C@H]2[C@@H]3CCC4=CC(=O)CC[C@]4(C)[C@H]3CC[C@]12C` [progesterone], the “Stimulation of LNCaP mtARt877a” value [1] is listed as “stimulated”.

With “PTEN: tumor suppressor, phosphatase and tensin homolog deleted on chromosome ten” the Apoptosis (U87MG cells) was “still able to induce apoptosis”, the “Effect on androgen-induced PSA mRNA expression” value (PSA mRNA expression) was “repressed” and the “Reduction of the half-life of newly synthesized [35S]-AR” value (AR protein stability) was 4 to 5 fold. The “Binding to nuclear receptors” value (AR, ER, GR, PR, RXR) was “binds preferentially to AR and the ER”, the “Effect on AR transactivation” value (AR transactivation [5]) was “dramatically suppressed AR transactivation” and the “Repression of AR transactivation” value (AR transactivation [6]; AR negative DU145 and PC-3) was “less than 2 fold”. For the same molecule, the “Repression of AR transactivation” value (AR transactivation [6]; AR-positive LNCaP cells) was 4 fold, the “Effect on AR transactivation” value (AR transactivation [6]; LNCaP, MMTV-luc and (ARE)4-luc) was “suppressed AR transactivation in both luciferase reporters at a similar level” and the AR protein levels (AR protein levels; COS-1 cells, transient transfection) was “reduce AR protein levels”. The “AR mRNA levels normalized by β-actin” value (AR protein levels; LNCaP PTEN-C1, Dox-induced PTEN) was “remained relatively unchanged”, the “Endogenous AR protein levels” value (AR protein levels; stable LNCaP clones, 4 μg/ml Dox 48 h, 10 nM DHT) was “reduced endogenous AR protein levels” and the Apoptosis (LNCaP cells) was “induce apoptosis markedly”.

For SRC-1: steroid receptor coactivator-1, the “Effect on AR transactivation in the presence of Smad3 or Smad4” value (AR transactivation [7]) was “increase AR transactivation”.

For TGF-β: transforming growth factor β, the “Effect on Smad3-AR two-hybrid reporter gene activity” value ([8]; 10 nM DHT) was “further induced”, the “Effect on Smad3-AR two-hybrid reporter gene activity” value ([8]; absence of DHT) was “cannot exert this effect” and the “Effect on AR-mediated transactivation” value ([9]; DU145, 10^−8 M DHT, TGF-β1 10 ng/ml) was “enhanced”. For the same molecule, the “Effect on AR-mediated transactivation” value ([9]; PC-3, dose-dependent) was “enhanced”.
